Reference: ChEMBL document CHEMBL5344482, “Deconvoluting low yield from weak potency in direct-to-biology workflows with machine learning” (RSC Med Chem, 2024)
pIC50: −log10 of the molar value.

Experiments:
[1] = target: Replicase polyprotein 1ab (Severe acute respiratory syndrome coronavirus 2, UniProt P0DTD1); test: Inhibition of SARS-Cov-2 main protease using fluorogenic substrate [5-FAM]-AVLQSGFR-[Lys(Dabcyl)]-K-amide by fluorogenic assay
[2] = target: Replicase polyprotein 1ab (Severe acute respiratory syndrome coronavirus 2) (UniProt P0DTD1); test: Inhibition of SARS-Cov-2 main protease using fluorogenic substrate [5-FAM]-AVLQSGFR-[Lys(Dabcyl)]-K-amide by fluorogenic assay relative to control

SMILES	pIC50 [1]	inhibition [2] [%]
NCCc1ccc(C(F)F)cc1	7.30	–
NCCc1cccc(Cl)c1	7.28	–
Nc1ncc(C(F)(F)F)cc1Cl	–	35
